From patent US20230278972A1, “SUBSTITUTED HALOALKYL SULFONANILIDE HERBICIDES” (FMC Corporation, priority 2020, published 2023)

Tests used:
Assay type in all cases: in vivo
[1] = test system: Oat, Wild (wild oat, Avena fatua); assay: Test A1 preemergence, Oat, Wild
How it was run: (§1)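 Herbicidal response was scored on plants treated either preemergence, by directed spray onto soil of a loam–sand blend after sowing, or postemergence on potted plants at the one- to two-leaf stage, 2–10 cm high. Test chemicals were carried in a non-phytotoxic solvent mix with surfactant.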

soybean (Glycine max) = assay: Test A1 postemergence, soybean; conditions: Postemergence
How it was run: as §1

corn (Zea mays) = assay: Test A1 postemergence, corn; conditions: Postemergence
How it was run: as §1

[2] = test system: goosegrass (Eleusine indica); assay: Test A1 postemergence, goosegrass; conditions: Postemergence
How it was run: as §1

[3] = test system: ragweed (common ragweed, Ambrosia artemisiifolia); assay: Test A1 preemergence, ragweed
How it was run: as §1

[4] = test system: wheat (Triticum aestivum); assay: Test A1 preemergence, wheat
How it was run: as §1

[5] = test system: ragweed (common ragweed, Ambrosia artemisiifolia); assay: Test A1 postemergence, ragweed; conditions: Postemergence
How it was run: (§2)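 Pre: seeds in loam/sand blend, directed soil spray. Post: potted plants, same soil, 2–10 cm, 1–2 leaf stage. Chemicals in non-phytotoxic solvent + surfactant for both.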

[6] = test system: Pigweed, Palmer (palmer amaranth, palmer pigweed, Amaranthus palmeri); assay: Test A1 postemergence, Pigweed, Palmer; conditions: Postemergence
How it was run: as §2

kochia (Bassia scoparia) = assay: Test A1 postemergence, kochia; conditions: Postemergence
How it was run: as §1

[7] = test system: goosegrass (Eleusine indica); assay: Test A1 preemergence, goosegrass
How it was run: as §1

[8] = 31 g ai/ha, 0 to 100 scale (0 no effect, 100 complete control)
[9] = 125 g ai/ha, 0 to 100 scale, 0 no effect, 100 complete control
[10] = 31 g ai/ha, 0 to 100 scale (0 no effect, 100 complete control), 10 days

Structure (SMILES)	Plant response rating, Oat, Wild [1, 8]	Plant response rating, Oat, Wild [1, 9]	Plant response rating, Soybean (soybean (Glycine max); [10])	Plant response rating, Soybean (soybean (Glycine max); 125 g ai/ha, 0 to 100 scale)	Plant response rating, Corn (corn (Zea mays); [10])	Plant response rating, Corn (corn (Zea mays); 125 g ai/ha, 0 to 100 scale)	Plant response rating, Goosegrass [2, 10]	Plant response rating, Goosegrass ([2]; 125 g ai/ha, 0 to 100 scale)	Plant response rating, Ragweed [3, 8]	Plant response rating, Ragweed [3, 9]	Plant response rating, Wheat [4, 8]	Plant response rating, Wheat [4, 9]	Plant response rating, Ragweed [5, 10]	Plant response rating, Ragweed ([5]; 125 g ai/ha, 0 to 100 scale)	Plant response rating, Pigweed, Palmer [6, 10]	Plant response rating, Pigweed, Palmer ([6]; 125 g ai/ha, 0 to 100 scale)	Plant response rating, Kochia (kochia (Bassia scoparia); [10])	Plant response rating, Kochia (kochia (Bassia scoparia); 125 g ai/ha, 0 to 100 scale)	Plant response rating, Goosegrass [7, 8]	Plant response rating, Goosegrass [7, 9]
Cc1cc(C)c(N(COC(=O)C(C)(C)C)S(=O)(=O)C(F)(F)F)cc1C1=NOC2CCCCCC12 (single isomer, unassigned) [Compound 294]	0	20	0	50	10	20	0	30	0	30	0	0	30	80	10	30	0	20	0	90
Cc1cc(C)c(-n2nccc(C)c2=O)cc1NS(=O)(=O)C(F)(F)F [Compound 281]	50	0	50	60	0	0	0	40	0	0	0	20	0	70	0	40	0	10	10	90
COc1cnn(-c2cc(NS(=O)(=O)C(F)(F)F)c(C)cc2C)c(=O)c1OC [Compound 282]	20	30	40	60	0	80	20	80	0	20	0	80	60	70	0	0	10	30	0	90
Cc1c(NS(=O)(=O)C(F)(F)F)cc(C(=O)N(C)C)c(C)c1Cl [Compound 287]	0	10	30	50	0	0	0	60	0	80	0	30	60	70	0	40	0	10	70	90
Cc1c(NS(=O)(=O)C(F)(F)F)cc(C(=O)N(C)C)c(C)c1C [Compound 288]	0	0	30	40	0	10	0	70	0	40	0	0	30	80	0	30	0	10	30	90
Cc1c(NS(=O)(=O)C(F)(F)F)cc(C(=O)N2CCOCC2)c(C)c1C [Compound 289, 1,1,1-Trifluoro-N-[2,3,4-trimethyl-5-(4-morpholinylcarbonyl)phenyl]methanesulfonamide]	20	50	40	50	0	20	40	70	0	60	30	80	70	80	10	60	20	60	80	90
Cc1cc(C)c(C2=NOC3CCCCCC23)cc1NS(=O)(=O)C(F)(F)F (stereo not drawn) [Compound 292]	0	50	20	80	0	0	0	80	10	80	20	90	20	40	0	30	30	50	80	100
Cc1cc(C)c(N(C(=O)OC(C)C)S(=O)(=O)C(F)(F)F)cc1C1=NOC2CCCC12 (stereo not drawn) [Compound 295]	0	0	20	50	0	0	20	70	0	0	0	30	50	70	0	30	0	30	80	90
Cc1cc(C)c(N(S(=O)(=O)C(F)(F)F)S(=O)(=O)C(F)(F)F)cc1C1=NOC2COCC12 (stereo not drawn) [Compound 296]	0	10	30	40	0	0	20	60	50	90	10	90	20	30	0	20	20	40	40	90
